Results from patent US4048161A, “7-[α-(Benzimidazol-2-ylcarbonylamino)-arylacetamido]ephalosporins” (Eli Lilly and Company, priority 1976, dated 1977).
Values after ≈ are worked out from the molar mass of the structure shown.

Legend:
Format in all cases: cell-based
[1] = tested on: X400 methicillin resistant Staphylococcus; assay: Gradient plate in vitro antibiotic activity (MIC), X400 methicillin resistant Staphylococcus; conditions: read-out: Minimum Inhibitory Concentration
Description: (§1) The antibiotic activity of the cephalosporin compounds of this invention is illustrated by the data provided in the following Table of representative compounds. The values in the Table are the minimum inhibitory concentrations (MIC) for the test compounds against the indicated microorganisms. The MIC values were obtained using the gradient plate in vitro method for determining antibiotic activity.
resistant Staphylococcus. X-400 is a methicillin
resistant Staphylococcus.

[2] = tested on: V41 penicillin resistant Staphylococcus; assay: Gradient plate in vitro antibiotic activity (MIC), V41 penicillin resistant Staphylococcus; conditions: read-out: Minimum Inhibitory Concentration
Description: as §1
(§2) 1. Test organisms V41, V32, and V84 are penicillin

Klebsiella pneumoniae = assay: Gradient plate in vitro antibiotic activity (MIC), Klebsiella pneumoniae; conditions: read-out: Minimum Inhibitory Concentration
Description: (§3) The values in the Table are the minimum inhibitory concentrations (MIC) for the test compounds against the indicated microorganisms. The MIC values were obtained using the gradient plate in vitro method for determining antibiotic activity.

Shigella sp. = assay: Gradient plate in vitro antibiotic activity (MIC), Shigella sp.; conditions: read-out: Minimum Inhibitory Concentration
Description: as §1

Aerobacter aerogenes = assay: Gradient plate in vitro antibiotic activity (MIC), Aerobacter aerogenes; conditions: Klebsiella aerogenes, read-out: Minimum Inhibitory Concentration
Description: as §1

Salmonella heidelberg = assay: Gradient plate in vitro antibiotic activity (MIC), Salmonella heidelberg; conditions: Salmonella enterica, read-out: Minimum Inhibitory Concentration
Description: as §3

[3] = tested on: V84 penicillin resistant Staphylococcus; assay: Gradient plate in vitro antibiotic activity (MIC), V84 penicillin resistant Staphylococcus; conditions: read-out: Minimum Inhibitory Concentration
Description: as §1, §2

Pseudomonas aeruginosa = assay: Gradient plate in vitro antibiotic activity (MIC), Pseudomonas aeruginosa; conditions: read-out: Minimum Inhibitory Concentration
Description: as §3

Escherichia coli = assay: Gradient plate in vitro antibiotic activity (MIC), Escherichia coli; conditions: read-out: Minimum Inhibitory Concentration
Description: as §3

[4] = tested on: V32 penicillin resistant Staphylococcus; assay: Gradient plate in vitro antibiotic activity (MIC), V32 penicillin resistant Staphylococcus; conditions: read-out: Minimum Inhibitory Concentration
Description: as §1, §2

Serratia marcescens = assay: Gradient plate in vitro antibiotic activity (MIC), Serratia marcescens; conditions: read-out: Minimum Inhibitory Concentration
Description: as §3

| Compound | MIC [1] | MIC [2] | MIC (Klebsiella pneumoniae) | MIC (Shigella sp.) | MIC (Aerobacter aerogenes) | MIC (Salmonella heidelberg) | MIC [3] | MIC (Pseudomonas aeruginosa) | MIC (Escherichia coli) | MIC [4] | MIC (Serratia marcescens) |
| --- | --- | --- | --- | --- | --- | --- | --- | --- | --- | --- | --- |
| Cn1nnnc1SCC1=C(C(=O)O)N2C(=O)C(NC(=O)C(NC(=O)c3nc4ccccc4[nH]3)c3ccc(O)cc3)C2SC1 (centres unmarked) [C] | 60 µg/mL (≈ 96.5 µM) | 0.9 µg/mL (≈ 1.45 µM) | 0.9 µg/mL (≈ 1.45 µM) | 5.5 µg/mL (≈ 8.85 µM) | 13 µg/mL (≈ 20.9 µM) | 8 µg/mL (≈ 12.9 µM) | 0.8 µg/mL (≈ 1.29 µM) | 10.5 µg/mL (≈ 16.9 µM) | 7.5 µg/mL (≈ 12.1 µM) | 0.9 µg/mL (≈ 1.45 µM) | 20.7 µg/mL (≈ 33.3 µM) |
| Cn1c(SCC2=C(C(=O)O)N3C(=O)C(NC(=O)C(NC(=O)c4nc5ccccc5[nH]4)c4ccc(O)cc4)C3SC2)nnc(O)c1=O (centres unmarked) [G] | > 200 µg/mL | 0.8 µg/mL (≈ 1.2 µM) | 1 µg/mL (≈ 1.5 µM) | 6.7 µg/mL (≈ 10.1 µM) | 19.2 µg/mL (≈ 28.9 µM) | 8.5 µg/mL (≈ 12.8 µM) | 0.8 µg/mL (≈ 1.2 µM) | 60 µg/mL (≈ 90.3 µM) | 11 µg/mL (≈ 16.5 µM) | 1.8 µg/mL (≈ 2.71 µM) | 41 µg/mL (≈ 61.7 µM) |
| Cc1nnc(SCC2=C(C(=O)O)N3C(=O)C(NC(=O)C(NC(=O)c4nc5ccccc5[nH]4)c4ccc(O)cc4)C3SC2)s1 (centres unmarked) [E] | 100 µg/mL (≈ 157 µM) | 4 µg/mL (≈ 6.27 µM) | 4.5 µg/mL (≈ 7.06 µM) | 10 µg/mL (≈ 15.7 µM) | 21.5 µg/mL (≈ 33.7 µM) | 16 µg/mL (≈ 25.1 µM) | 1 µg/mL (≈ 1.57 µM) | 18.5 µg/mL (≈ 29 µM) | 16 µg/mL (≈ 25.1 µM) | 5 µg/mL (≈ 7.84 µM) | 70 µg/mL (≈ 110 µM) |
| Cn1nnnc1SCC1=C(C(=O)O)N2C(=O)C(NC(=O)C(NC(=O)c3nc4ccccc4[nH]3)c3cccs3)C2SC1 (centres unmarked) [D] | 19.5 µg/mL (≈ 31.9 µM) | 0.6 µg/mL (≈ 0.981 µM) | 0.6 µg/mL (≈ 0.981 µM) | 4 µg/mL (≈ 6.54 µM) | 10 µg/mL (≈ 16.3 µM) | 7.5 µg/mL (≈ 12.3 µM) | 0.5 µg/mL (≈ 0.817 µM) | 14.8 µg/mL (≈ 24.2 µM) | 7 µg/mL (≈ 11.4 µM) | 0.6 µg/mL (≈ 0.981 µM) | 14.8 µg/mL (≈ 24.2 µM) |
| CC(=O)OCC1=C(C(=O)O)N2C(=O)C(NC(=O)C(NC(=O)c3nc4ccccc4[nH]3)c3ccccc3)C2SC1 (centres unmarked) [A] | > 20 µg/mL | 4 µg/mL (≈ 7.28 µM) | 18.5 µg/mL (≈ 33.7 µM) | 15 µg/mL (≈ 27.3 µM) | 18.3 µg/mL (≈ 33.3 µM) | 22 µg/mL (≈ 40 µM) | 0.6 µg/mL (≈ 1.09 µM) | 25 µg/mL (≈ 45.5 µM) | 26.5 µg/mL (≈ 48.2 µM) | 5 µg/mL (≈ 9.1 µM) | 100 µg/mL (≈ 182 µM) |
| NC(=O)OCC1=C(C(=O)O)N2C(=O)C(NC(=O)C(NC(=O)c3nc4ccccc4[nH]3)c3ccc(O)cc3)C2SC1 (centres unmarked) [F] | 120 µg/mL (≈ 212 µM) | 0.9 µg/mL (≈ 1.59 µM) | 10 µg/mL (≈ 17.7 µM) | 19.5 µg/mL (≈ 34.4 µM) | 55 µg/mL (≈ 97.1 µM) | 19.5 µg/mL (≈ 34.4 µM) | 0.8 µg/mL (≈ 1.41 µM) | 19.5 µg/mL (≈ 34.4 µM) | 55 µg/mL (≈ 97.1 µM) | 0.9 µg/mL (≈ 1.59 µM) | > 200 µg/mL |
| Cn1nnnc1SCC1=C(C(=O)O)N2C(=O)C(NC(=O)C(NC(=O)c3nc4ccccc4[nH]3)c3ccccc3)C2SC1 (centres unmarked) [B] | > 20 µg/mL | 5 µg/mL (≈ 8.26 µM) | 5 µg/mL (≈ 8.26 µM) | 5 µg/mL (≈ 8.26 µM) | 8.5 µg/mL (≈ 14 µM) | 6.5 µg/mL (≈ 10.7 µM) | 0.7 µg/mL (≈ 1.16 µM) | 22 µg/mL (≈ 36.3 µM) | 18.5 µg/mL (≈ 30.5 µM) | 7 µg/mL (≈ 11.6 µM) | 21.5 µg/mL (≈ 35.5 µM) |
